Values after ≈ are worked out from the molar mass of the structure shown. Bounds are passed on as bounds.

Broadly, the solubility (kinetic) is solubility judged after dilution from a stock solution rather than from solid.

For the series the following is noted: buffer; pH 7.4; 200.0 µM.
Take `CC(=O)c1c(O)c2ccccc2n(C2CCCCC2)c1=O`: the kinetic solubility was determined as 1.4 µg/mL (≈ 4.91 µM).

`CC(C)(C)C(=O)NCCCNc1ccc([N+](=O)[O-])cc1` yielded a solubility (kinetic) of 38.3 µg/mL (≈ 137 µM). In the case of `COC(=O)C1=C(C)N(Cc2ccc(OC)cc2)C(=O)/C1=C\c1ccco1`, the solubility (kinetic) worked out at 7.7 µg/mL (≈ 21.8 µM).

`CC(C)(C)Nc1nc(-c2ccc3c(c2)CCN3C(=O)C2CC2)cs1` showed a solubility (kinetic) of 5.4 µg/mL (≈ 15.8 µM). With `CCN(CC)S(=O)(=O)c1cccc(NC2=NCC(C)S2)c1` (stereo unspecified) the figure was over 49.1 µg/mL; with `CN(C)CCCNc1nc(-c2ccccc2)c2c(c1C#N)CC(C)(C)OC2`, 47.3 µg/mL (≈ 130 µM). Compound `O=C(CSc1nc2ccccc2[nH]1)NCc1ccccc1` came in with a kinetic solubility of 33.7 µg/mL (≈ 113 µM). `CCOC(=O)C(O)(c1ccc(NC(=O)NC)cc1)C(F)(F)F` (stereo unspecified) had a solubility (kinetic) of over 48 µg/mL.

`CCOC(=O)Cn1nc2sc3ccccc3n2c(=O)c1=O` returned a solubility (kinetic) of over 45.8 µg/mL. Take `COc1ccc(CNC(=S)NC(C)CCc2ccccc2)cc1` (stereo unspecified): the solubility (kinetic) is 14.8 µg/mL (≈ 45.1 µM). `CCOC(=O)C(=CNc1ccc(S(N)(=O)=O)cc1)C(=O)OCC` displayed a solubility (kinetic) of 37.8 µg/mL (≈ 110 µM). `Cc1ccc(NS(=O)(=O)c2cccc([N+](=O)[O-])c2)nc1` showed a kinetic solubility of 14.6 µg/mL (≈ 49.8 µM).

`O=C(NCC(F)(F)F)c1ccc(S(=O)(=O)Nc2ccccc2N2CCCC2)cc1`: the kinetic solubility was determined as 15.4 µg/mL (≈ 36 µM). The value for `Cc1cc(C(=O)CN2C(=O)NC3(CCC(C)CC3)C2=O)c(C)n1C` (stereo unspecified) was 13.3 µg/mL (≈ 40.1 µM). With `CC1(c2cccc(Br)c2)NC(=O)N(CC(=O)c2ccc3c(c2)OCCO3)C1=O` (stereo unspecified) the figure was 12.5 µg/mL (≈ 28.1 µM). With `O=C(COC(=O)c1cnccn1)c1ccc(Cl)cc1` the figure was 38.4 µg/mL (≈ 139 µM); with `CCc1ccc(CCC(=O)Nc2ccc(Br)cc2)o1`, 4.4 µg/mL (≈ 13.7 µM); with `CCCC(=O)OCC(=O)c1[nH]c(C)c(C(C)=O)c1C`, over 39.8 µg/mL. Compound `COc1ccc(C(=O)O/N=C(\N)c2ccccc2)cc1OC` displayed a kinetic solubility of 23.8 µg/mL (≈ 79.3 µM). With `CC(C)N(CC#CC(O)(c1ccccc1)c1ccccc1)C(C)C` the figure was over 48.2 µg/mL; with `CCOc1cccc(C(=O)Nc2cc(C)ccc2NC(=O)c2ccco2)c1`, 22 µg/mL (≈ 60.4 µM). With `CC(C)CCNC(=O)c1ccc2c(Cl)c3c(nc2c1)CCC3` the figure was 0.5 µg/mL (≈ 1.58 µM); with `C=CCOc1ccc(/C=C2\SC(=Nc3cccnc3)NC2=O)cc1`, 0.7 µg/mL (≈ 2.07 µM).

For `COc1cccc(NC(=O)c2sc(Cl)nc2C)c1`, the solubility (kinetic) is over 42.4 µg/mL. As to `CC(Oc1ccc2c(-c3ccccc3)cc(=O)oc2c1)C(=O)N1CCOCC1` (stereo unspecified), the solubility (kinetic) was over 56.9 µg/mL. The value for `CC(C1CCN(Cc2nc(C3CC3)no2)CC1)N1CCOCC1` (stereo unspecified) was 47.9 µg/mL (≈ 149 µM); that for `CC1(C)[C@H]2CC[C@]1(C)[C@@H](OC(=O)C[N+]1(C)CCOCC1)C2.[I-]` was 60.1 µg/mL. The value for `O=C(NCc1cccc(Cl)c1)NC(=O)c1csc([N+](=O)[O-])c1` was under 0.2 µg/mL. The value for `CNC(=O)Cn1nc(C)c(S(=O)(=O)N2CCOCC2)c1C` was over 47.5 µg/mL. For `CCOC(=O)c1sc(=NC(=O)c2cccc(C)c2)n(C)c1C`, the solubility (kinetic) stood at 0.7 µg/mL (≈ 2.2 µM).

In turn, `O=Cc1c(NC2CCCCC2)c2ccccc2[nH]c1=O` came in with a kinetic solubility of 35.2 µg/mL (≈ 130 µM). With `C[C@@H](C(=O)OCC(=O)c1ccc(F)c(F)c1)N1C(=O)C2CCCCC2C1=O` (stereo partly specified) the figure was over 56.9 µg/mL; with `COc1cccc(C(C)NC(=O)C2CCCC2)c1` (stereo unspecified), over 37.1 µg/mL. `CC(=O)Nc1ccc(C(=O)OCc2ccccc2Br)cc1`: the kinetic solubility was under 0.7 µg/mL.

Consider `O=S(=O)(NCC(O)c1ccccc1)c1cc(Cl)sc1Cl` (stereo unspecified), for which the kinetic solubility turned out to be 49.7 µg/mL (≈ 141 µM).

As to `COc1ccc(C(=O)Nc2cccc(S(=O)(=O)NCc3ccco3)c2)cc1`, the kinetic solubility amounted to 8.7 µg/mL (≈ 22.5 µM). The value for `N#Cc1ccccc1NC(=O)CN1CCOCC1` was over 36.8 µg/mL.

`CCCOc1ccc(Cc2c(O)nc(N)[nH]c2=O)cc1C` showed a solubility (kinetic) of 15.6 µg/mL (≈ 53.9 µM). Consider `O=C(c1cccc(OCc2ccccc2)c1)N1CCOCC1`, for which the solubility (kinetic) worked out at 42.9 µg/mL (≈ 144 µM). With `CC1CCCC(NC(=O)/C=C/c2c(F)cccc2Cl)C1C` (stereo unspecified) the figure was 0.9 µg/mL (≈ 2.9 µM). With `Cc1ccc(NC(=O)Cc2cccs2)cc1Cl` the figure was 6.1 µg/mL (≈ 23 µM). For the compound `CCN1CCN(C(=O)N(c2ccccc2)c2ccccc2)CC1`, the solubility (kinetic) is over 46.4 µg/mL. With `O=C(CSc1ccc(Br)cc1)NC1CCCCCC1` the figure was 3.4 µg/mL (≈ 9.93 µM); with `CCCC12CN3CC(C)(CN(C1)C3c1ccco1)C2=O` (stereo unspecified), 38.9 µg/mL (≈ 142 µM); with `CC(=O)c1ccc(Oc2nc3c(c(=O)n(C)c(=O)n3C)n2C)cc1`, 9.1 µg/mL (≈ 27.7 µM). In turn, `Cc1ccccc1NC1=NCC(c2ccc([N+](=O)[O-])cc2)S1` (stereo unspecified) showed a solubility (kinetic) of 10.5 µg/mL (≈ 33.5 µM). `O=CC1=C(N2CCOCC2)/C(=C\c2ccccc2)CC1` displayed a solubility (kinetic) of 32.2 µg/mL (≈ 120 µM). Consider `COc1cccc(NC(=O)CN(C)CC(=O)NCc2ccc(F)cc2)c1`, for which the solubility (kinetic) is over 53.9 µg/mL.

`Cc1cc(NC(=O)c2cc(S(=O)(=O)N3CCCCC3)ccc2C)no1`: the kinetic solubility was determined as 14.2 µg/mL (≈ 39.1 µM).

As for `CCOc1ccccc1Nc1nnc(SCC(=O)NCC2CCCO2)s1` (stereo unspecified), the solubility (kinetic) is over 59.2 µg/mL. Regarding `C=CCNC(=O)N1CCc2[nH]c3ccc(F)cc3c2C1`, the solubility (kinetic) is over 41 µg/mL.

Values taken from PubChem BioAssay AID1996.
